Laboratory results taken from patent publication US20220387429A1, “USE OF IMIDAZOPYRIMIDINE OR IMIDAZOTRIAZINE COMPOUND FOR PREVENTION, ALLEVIATION, OR TREATMENT OF DEVELOPMENTAL DISABILITY” (SK BIOPHARMACEUTICALS CO., LTD., priority 2019, published 2022).

Tests used:
[1] = system: Fmr1 gene knockout mouse model; test: Audiogenic seizure test, anticonvulsant efficacy; type: in vivo; conditions: Fmr1 gene knockout mice, 2 mg/kg intraperitoneally twice a day for 6 weeks
Excerpt: (§1) An Fmr1 gene knockout mouse model was used as an animal model of fragile X syndrome. This model lacks FMRP protein due to disruption of the Fmr1 gene. Typical phenotypes of this mouse model include audiogenic seizure, hyperlocomotor activity, cognitive deficit, concentration deficit disorder, and the like.
(§2) Male Fmr1 C57BL/6J knock-out mice derived from the early group imported from Jackson Laboratories were used in the experiments. The experimental animals were raised in a light-controlled environment (illuminated for 12 hours/nonilluminated for 12 hours) and maintained at a temperature of 21° C.±2° C. and a relative humidity of about 55%±5%. Food and water were ad libitum fed. An anticonvulsant efficacy experiment on audiogenic seizure, a contextual fear conditioning experiment, an open field test, and a marble burying test in the Fmr1 gene knockout mouse model was performed by Fragile X Syndrome Drug Validation Initiative (FRAXA-DVI). The mice were randomly divided into groups and the test was performed under illumination.
(§3) The test compound was dissolved in 10% DMSO (dimethylsulfoxide)+30% PEG 300 in DW (distilled water), and administered intraperitoneally at a dose of 2 mg/kg twice a day for 6 weeks. To a control group, vehicle (10% DMSO (dimethylsulfoxide)+30% PEG 300 in DW (distilled water)) was administered.
(§4) Ten mice per group were used.
(§5) After the vehicle or test compound was administered intraperitoneally at a dose of 2 mg/kg twice a day for 6 weeks, the mice were placed in a chamber and exposed to an alarm. The response of the mice during the test was evaluated numerically by the following criteria according to the intensity of seizure, and the survival rate was also observed.
(§6) 1: Wild running and jumping

[2] = system: Wild-type mice; test: Audiogenic seizure test in wild-type mice; type: in vivo, mouse; conditions: 2 mg/kg intraperitoneally twice a day for 6 weeks
Description: [The source words this procedure for another variant and reports this variant under the same test.] as §2, §3, §4, §5, §6

[3] = system: Fmr1 gene knockout mouse model; test: Contextual fear conditioning experiment; type: in vivo; conditions: Fmr1 gene knockout mice; 2 mg/kg intraperitoneally twice a day for 6 weeks; versus vehicle-administered knockout group
Excerpt: as §1, §2
The test compound was dissolved in 10% DMSO (dimethylsulfoxide)+30% PEG 300 in DW (distilled water), and administered intraperitoneally at a dose of 2 mg/kg twice a day for 6 weeks. […]
(§7) After data analysis by ANOVA, the effect was defined as significant when p<0.05. All results were expressed as mean±SEM.

[4] = system: Fmr1 gene knockout mouse model; test: Open field test; type: in vivo; conditions: Fmr1 gene knockout mice; 2 mg/kg intraperitoneally twice a day for 6 weeks; versus wild-type mice, P value of 0.0001 or less
Excerpt: as §1
Male Fmr1 C57BL/6J knock-out mice derived from the early group imported from Jackson Laboratories were used in the experiments. The experimental animals were raised in a light-controlled environment (illuminated for 12 hours/nonilluminated for 12 hours) and maintained at a temperature of 21° C.±2° C. and a relative humidity of about 55%±5%. Food and water were ad libitum fed. […]
After the vehicle or test compound was administered intraperitoneally at a dose of 2 mg/kg twice a day for 6 weeks, an open field test was performed to observe the efficacy behavior of mice who fearlessly stepped out to the center of the open field. […] The number of times the mouse crossed the center of the open field was measured by the breakage of the horizontal beam due to the mouse's movement. […]
as §7

[5] = system: Fmr1 gene knockout mouse model; test: Marble burying test; type: in vivo; conditions: Fmr1 gene knockout mice; 2 mg/kg intraperitoneally twice a day for 6 weeks; versus vehicle-administered knockout group
Excerpt: as §1
as §2, with “The mice were randomly divided into groups and the test was performed under illumination.” left out
After the vehicle or test compound was administered intraperitoneally at a dose of 2 mg/kg twice a day for 6 weeks, a hippocampal function-dependent marble burying test was performed. […] The mouse was placed and left for 30 minutes, then the number of marbles buried by the mouse was counted.
as §7

Fc1ccc(-c2cnc3nc(COc4ccccn4)cn3c2)c(C(F)(F)F)c1 [test compound, 6-[4-fluoro-2-(trifluoromethyl)phenyl]-2-(2-pyridyloxymethyl)imidazo[1,2-a]pyrimidine]
Seizures of 3 or more points ([1]; mice affected/mice in group): 5/10 | Wild running ([1]; mice affected/mice in group): 6/10 | Vulnerability to audiogenic seizure ([1]; proportion of wild running mice, vehicle group 90%, 2 mg/kg): 60% | Survival rate ([1]; survivors/mice in group): 5/10 | Audiogenic seizure phenotype [2]: no mice showed audiogenic seizure phenotype | Seizures of 3 or more points ([2]; mice affected/mice in group): 0/10 | Wild running ([2]; mice affected/mice in group): 0/10 | Vulnerability to audiogenic seizure ([2]; proportion of wild running mice): 0% | Survival rate ([2]; survivors/mice in group): 10/10 | Freezing behavior (contextual fear conditioning, FIG. 1) [3]: significantly increased freezing behavior compared to the vehicle-administered group | Number of times the mouse crossed the center (open field, FIG. 2) [4]: significant increase in movement compared to the wild-type mice | Number of marbles buried (FIG. 3) [5]: increased compared to that in the vehicle-administered group of Fmr1 gene knockout mice
